Source: patent publication US20150307938A1, “METHOD TO IDENTIFY A NOVEL CLASS OF IMMUNOLOGIC ADJUVANTS” (Lancell, L.L.C., priority 2011, published 2015)
“And” between values parts separate entries of the source, which are not always exact repeats. Equal entries are not always repeated.

System: skin
Experiment: Affymetrix microarray of skin, DBP-4 hr and analogs vs. untreated; gene selection by log-2 fold change, Wilcoxon, Kendall tau (Tables 8, 9)
Type: in vivo, mouse
Conditions: mouse, in vivo

## CCCCOC(=O)c1ccccc1C(=O)OCCCC [DBP, dibutylphthalate]
  DBP LogFold-Change Versus-Untreated: Csrp1: 0.81
  DBP LogFold-Change Versus-Untreated: Cxcl1: 5.43
  DBP LogFold-Change Versus-Untreated: Cxcl2: 4.56
  DBP LogFold-Change Versus-Untreated: Cxcl16: 1.35
  DBP LogFold-Change Versus-Untreated: Cyr61: 1.59
  DBP LogFold-Change Versus-Untreated: Cytip: 1.19
  DBP LogFold-Change Versus-Untreated: Deptor: 0.99
  DBP LogFold-Change Versus-Untreated: Dusp6: 1.81
  DBP LogFold-Change Versus-Untreated: Dusp7: 1.07
  DBP LogFold-Change Versus-Untreated: Efhd2: 0.82
  DBP LogFold-Change Versus-Untreated: Egr1: 1.50
  DBP LogFold-Change Versus-Untreated: Eif1a: 0.97
  DBP LogFold-Change Versus-Untreated: Epgn: 3.82
  DBP LogFold-Change Versus-Untreated: Epha2: 0.82
  DBP LogFold-Change Versus-Untreated: Errfi1: 0.89
  DBP LogFold-Change Versus-Untreated: F2rl1: 0.78
  DBP LogFold-Change Versus-Untreated: Fam43a: 0.81
  DBP LogFold-Change Versus-Untreated: Fgfbp1: 1.01
  DBP LogFold-Change Versus-Untreated: Fkbp5: 1.19
  DBP LogFold-Change Versus-Untreated: Fosl1: 1.95
  DBP LogFold-Change Versus-Untreated: Gjb2: 1.21
  DBP LogFold-Change Versus-Untreated: Gpr35: 0.91
  DBP LogFold-Change Versus-Untreated: Gpr65: 1.35
  DBP LogFold-Change Versus-Untreated: Gyk: 1.00
  DBP LogFold-Change Versus-Untreated: Gzmb: 1.30
  DBP LogFold-Change Versus-Untreated: Havcr2: 1.89
  DBP LogFold-Change Versus-Untreated: Hbegf: 1.76
  DBP LogFold-Change Versus-Untreated: Hdc: 2.14
  DBP LogFold-Change Versus-Untreated: Icam1: 2.66
  DBP LogFold-Change Versus-Untreated: Ier2: 1.02
  DBP LogFold-Change Versus-Untreated: Ier3: 1.85
  DBP LogFold-Change Versus-Untreated: Il1b: 2.73
  DBP LogFold-Change Versus-Untreated: Il1rl1: 0.91
  DBP LogFold-Change Versus-Untreated: Il4ra: 0.81
  DBP LogFold-Change Versus-Untreated: Il6: 3.05
  DBP LogFold-Change Versus-Untreated: Il7r: 1.15
  DBP LogFold-Change Versus-Untreated: Il10ra: 0.90
  DBP LogFold-Change Versus-Untreated: Irs2: 0.94
  DBP LogFold-Change Versus-Untreated: Jun: 1.06
  DBP LogFold-Change Versus-Untreated: Junb: 1.39
  DBP LogFold-Change Versus-Untreated: Kctd11: 0.80
  DBP LogFold-Change Versus-Untreated: Klrb 1b: 1.25
  DBP LogFold-Change Versus-Untreated: Krt6a: 1.53
  DBP LogFold-Change Versus-Untreated: Krt35: 1.06
  DBP LogFold-Change Versus-Untreated: LOC100504977: 3.10
  DBP LogFold-Change Versus-Untreated: Map3k6: 1.03
  DBP LogFold-Change Versus-Untreated: Map3k8: 1.01
  DBP LogFold-Change Versus-Untreated: Mt1: 1.34
  DBP LogFold-Change Versus-Untreated: Mt2: 1.11
  DBP LogFold-Change Versus-Untreated: Nfil3: 1.60
  DBP LogFold-Change Versus-Untreated: Nfkb2: 0.94
  DBP LogFold-Change Versus-Untreated: Nr4a1: 2.09
  DBP LogFold-Change Versus-Untreated: Nr4a2: 1.39
  DBP LogFold-Change Versus-Untreated: Osmr: 0.95
  DBP LogFold-Change Versus-Untreated: Otud7a: 1.25
  DBP LogFold-Change Versus-Untreated: Pde4b: 1.44
  DBP LogFold-Change Versus-Untreated: Plaur: 1.06
  DBP LogFold-Change Versus-Untreated: Plk3: 1.00
  DBP LogFold-Change Versus-Untreated: Pmaip1: 1.47
  DBP LogFold-Change Versus-Untreated: Pprc1: 0.78
  DBP LogFold-Change Versus-Untreated: Pqlc1: 0.87
  DBP LogFold-Change Versus-Untreated: Prss22: 1.61
  DBP LogFold-Change Versus-Untreated: Ptges: 1.22
  DBP LogFold-Change Versus-Untreated: Pvr: 0.90
  DBP LogFold-Change Versus-Untreated: Pyy: 2.62
  DBP LogFold-Change Versus-Untreated: Rab20: 1.52
  DBP LogFold-Change Versus-Untreated: Ramp3: 1.20
  DBP LogFold-Change Versus-Untreated: Rgs1: 2.12
  DBP LogFold-Change Versus-Untreated: Rnf19b: 1.15
  DBP LogFold-Change Versus-Untreated: Serpine1: 2.68
  DBP LogFold-Change Versus-Untreated: Slc7a5: 1.52
  DBP LogFold-Change Versus-Untreated: Slc10a6: 1.33
  DBP LogFold-Change Versus-Untreated: Slc25a25: 1.16
  DBP LogFold-Change Versus-Untreated: Slc39a8: 1.52
  DBP LogFold-Change Versus-Untreated: Slc39a14: 0.84
  DBP LogFold-Change Versus-Untreated: Smox: 1.30 and 1.29 and 1.28
  DBP LogFold-Change Versus-Untreated: Socs2: 1.26
  DBP LogFold-Change Versus-Untreated: Socs3: 1.39
  DBP LogFold-Change Versus-Untreated: Sprr1a: 1.43
  DBP LogFold-Change Versus-Untreated: Stc1: 1.07
  DBP LogFold-Change Versus-Untreated: Stk17b: 0.89
  DBP LogFold-Change Versus-Untreated: Tnfaip2: 1.94
  DBP LogFold-Change Versus-Untreated: Tnfaip3: 2.10
  DBP LogFold-Change Versus-Untreated: Tnfaip6: 2.30
  DBP LogFold-Change Versus-Untreated: Traf1: 1.07
  DBP LogFold-Change Versus-Untreated: Uap1: 1.11
  DBP LogFold-Change Versus-Untreated: Zbtb16: 1.04
  DBP LogFold-Change Versus-Untreated: Zfp36: 1.53
  DBP LogFold-Change Versus-Untreated: Zfp593: 1.01
  Dbp NM_016974_at ≧2-Fold change: No
  Deptor NM_001037937_at ≧2-Fold change: No
  Dlgap4 NM_001042487_at ≧2-Fold change: No
  Dlgap4 NM_001042488_at ≧2-Fold change: No
  Dusp6 (NM_026268_at) ≧2-Fold change: Yes
  Dusp7 (NM_153459_at) ≧2-Fold change: Yes
  Ear5 NM_019398_at ≧2-Fold change: No
  Epgn (NM_053087_at) ≧2-Fold change: Yes
  Fam134b NM_001034851_at ≧2-Fold change: No
  Gcdh NM_001044744_at ≧2-Fold change: No
  Gm10228 XM_001474297_at ≧2-Fold change: No
  Gm10228 XM_003086004_at ≧2-Fold change: No
  Gm10229 XM_003086003_at ≧2-Fold change: No
  Gsdmc NM_031378_at ≧2-Fold change: No
  Gzmb (NM_013542_at) ≧2-Fold change: Yes
  H19 NR_001592_at ≧2-Fold change: No
  Havcr2 (NM_134250_at) ≧2-Fold change: Yes
  Ier2 (NM_010499_at) ≧2-Fold change: Yes
  Ier3 (NM_133662_at) ≧2-Fold change: Yes
  Ifi202b (NM_011940_at) ≧2-Fold change: Yes
  Il1f6 (NM_019450_at) ≧2-Fold change: Yes
  Il1rl1 NM_001025602_at ≧2-Fold change: No
  Il6 (NM_031168_at) ≧2-Fold change: Yes
  Il20 (NM_021380_at) ≧2-Fold change: Yes
  Inpp5a NM_001127363_at ≧2-Fold change: No
  Inpp5d NM_001110192_at ≧2-Fold change: No
  Inpp5d NM_001110193_at ≧2-Fold change: No
  Jdp2 (NM_030887_at) ≧2-Fold change: Yes
  Jun (NM_010591_at) ≧2-Fold change: Yes
  Klhdc5 NM_001081237_at ≧2-Fold change: No
  Klk6 (NM_011177_at) ≧2-Fold change: Yes
  Klrb1b (NM_030599_at) ≧2-Fold change: Yes
  Krt25 (NM_133730_at) ≧2-Fold change: Yes
  Krt27 (NM_010666_at) ≧2-Fold change: Yes
  Krt33a NM_027983_at ≧2-Fold change: No
  Krt34 NM_027563_at ≧2-Fold change: No
  Krt35 (NM_016880_at) ≧2-Fold change: Yes
  Krt71 (NM_019956_at) ≧2-Fold change: Yes
  Krtap1-5 NM_027157_at ≧2-Fold change: No
  Krtap3-1 NM_023511_at ≧2-Fold change: No
  Krtap3-3 NM_025524_at ≧2-Fold change: No
  Krtap4-2 NM_026807_at ≧2-Fold change: No
  Krtap4-16 (NM_001013823_at) ≧2-Fold change: No
  Krtap5-2 NM_027844_at ≧2-Fold change: No
  Krtap9-3 NM_029351_at ≧2-Fold change: No
  Krtap13-1 NM_183189_at ≧2-Fold change: No
  Krtap16-1 NM_130870_at ≧2-Fold change: No
  Krtap16-5 NM_130857_at ≧2-Fold change: No
  Krtap16-7 NM_028621_at ≧2-Fold change: No
  Krtap16-8 NM_130856_at ≧2-Fold change: No
  Krtap16-9 NM_130876_at ≧2-Fold change: No
  Krtap16-10 NM_183296_at ≧2-Fold change: No
  Krtap28-13 XM_896507_at ≧2-Fold change: No
  Krtap28-13 XM_919110_at ≧2-Fold change: No
  LOC100044068 (XM_001473873_at) ≧2-Fold change: Yes
  LOC100503254 XM_003085741_at ≧2-Fold change: No
  LOC100504977 (XM_003085794_at) ≧2-Fold change: Yes
  Lmod2 NM_053098_at ≧2-Fold change: No
  Lyz2 NM_017372_at ≧2-Fold change: No
  Maff (NM_010755_at) ≧2-Fold change: Yes
  Map3k6 (NM_016693_at) ≧2-Fold change: Yes
  Mcoln2 (NM_026656_at) ≧2-Fold change: Yes
  Mfhas1 NM_001081279_at ≧2-Fold change: No
  Mfsd4 NM_001114662_at ≧2-Fold change: No
  Mia1 NM_019394_at ≧2-Fold change: No
  Mrpl44 NM_001081210_at ≧2-Fold change: No
  Ms4a6d NM_026835_at ≧2-Fold change: No
  Mt1 (NM_013602_at) ≧2-Fold change: Yes
  Mylpf NM_016754_at ≧2-Fold change: No
  Myoz2 NM_021503_at ≧2-Fold change: No
  NA (AFFX-18SRNAMur/X00686_3_at) ≧2-Fold change: No
  NA (AFFX-18SRNAMur/X00686_5_at) ≧2-Fold change: No
  NA (AFFX-18SRNAMur/X00686_M_at) ≧2-Fold change: No
  NA (AFFX-BioB-3_at) ≧2-Fold change: No
  NA (AFFX-BioB-5_at) ≧2-Fold change: No
  NA (AFFX-BioB-M_at) ≧2-Fold change: No
  NA (AFFX-BioC-3_at) ≧2-Fold change: No
  NA (AFFX-BioC-5_at) ≧2-Fold change: No
  NA (AFFX-BioDn-3_at) ≧2-Fold change: No
  NA (AFFX-BioDn-5_at) ≧2-Fold change: No
  NA (AFFX-ThrX-5_at) ≧2-Fold change: No
  Ncbp1 NM_001033201_at ≧2-Fold change: No
  Nfil3 (NM_017373_at) ≧2-Fold change: Yes
  Nfkbia (NM_010907_at) ≧2-Fold change: Yes
  Nfkbiz (NM_030612_at) ≧2-Fold change: Yes
  Nolc1 NM_001039351_at ≧2-Fold change: No
  Nolc1 NM_001039352_at ≧2-Fold change: No
  Nolc1 NM_001039353_at ≧2-Fold change: No
  Nr4a2 (NM_013613_at) ≧2-Fold change: Yes
